The text below walks through data of patent publication US20150352040A1 (priority 2010, published 2015).

For series [1] the following is noted: in comparison to a 15 mg dose of hydrocodone. An excerpt:
In certain preferred embodiments, the opioid agonist is hydrocodone.

For series [2] the following is noted: milligram-for-milligram basis; cited from earlier work.
Series [3] in a line: TRNA therapy with topical apomorphine, onset of clinical effect. The series is classed as in vivo, human.
In series [4] the test system is human patients.
For series [5], the system named is patients. The experiment in a line: Compounded topical morphine sulfate and tramadol, inventor's clinical experience (nuchal and peripheral application). To be noted: patients tapering off oral narcotics, nuchal delivery as only pain therapy.
Experimental: The dose for MS has been 2.5-5.0 mg and for tramadol, 40-80 mg, divided over two to three locations, as described herein.
With activation of opioid receptors potentially providing improved pain relief, MS and tramadol were compounded for topical administration.
The subject of series [6] is human patients. The experiment in a line: Efficacy of topical opioid analgesic formulations in human patients (Example 6). The series is classed as in vivo. An excerpt: The efficacy of topical opioid analgesic formulations was studied in human patients.
The conditions of series [7]: compounded morphine in cold cream applied locally to skin at areas of pain; cited from earlier work.
Series [8] concerns patient. To be noted: 1 mg twice daily.
The conditions of series [9]: cited from earlier work.
Series [10] has as its system patients. To be noted: cited from earlier work.
[11] abbreviates: case 4, acute lumbar sprain, 1.0 mg application.
Setting [12] is: Patient C, 40 mg topical divided between knee and lower back.
The mark [13] stands for this setting: Patient E, 40 mg topical to neck and back in divided dose.
Setting [14] is: Patient F, 40 mg topical to nuchal region and lower back in divided doses.
The mark [15] stands for this setting: Patient H, 40 mg topical in 1 ml Lipoderm.

Where two headings read alike, the source gives them in different places.

As for `COc1ccc2c3c1O[C@H]1[C@@H](O)C=C[C@H]4[C@@H](C2)N(C)CC[C@@]341` [Codeine], the “Calculated Dose (mg), equianalgesic” value in series [1] is 90.0 mg.
Turning to `CC(=O)Oc1ccc2c3c1O[C@H]1[C@@H](OC(C)=O)C=C[C@H]4[C@@H](C2)N(C)CC[C@@]341` [Heroin, diacetylmorphine], the “potency relative to morphine” value in series [2] is listed as 1.5-2 times.
For `COc1ccc2c3c1O[C@H]1C(=O)CC[C@H]4[C@@H](C2)N(C)CC[C@]314` [Hydrocodone], in series [1], the “Calculated Dose (mg), equianalgesic” value is listed as 15.0 mg.
For the compound `CN1CC[C@]23CCCC[C@H]2[C@H]1Cc1ccc(O)cc13` [Levorphanol], the “Calculated Dose (mg), equianalgesic” value in series [1] was 1.8 mg.
In the case of `CCC(=O)C(CC(C)N(C)C)(c1ccccc1)c1ccccc1` (stereo not drawn) [Methadone], the “Calculated Dose (mg), equianalgesic” value in series [1] is reported as 9.0 mg.
Same read-out and setting: then `COc1ccc2c3c1O[C@H]1C(=O)CC[C@@]4(O)[C@@H](C2)N(C)CC[C@]314` [Oxycodone], with 13.5 mg.
For the compound `CN1CCc2cccc3c2[C@H]1Cc1ccc(O)c(O)c1-3` [apomorphine], in series [3], the “onset of clinical effect” value is 10 to 15 min. Moreover, the “time to pain relief, all patients” value in [4] (Example 3, cream of Example 1 over nerve entrapment areas or affected muscle) fell in the range of 5 to 10 min. Moreover, in series [4] (case 1, pregnant person, 0.5 mg at the wrist), the “outcome, carpal tunnel syndrome” value is given as “without recurrent symptoms”. In addition, in [4] (case 2, additional 0.5 mg after 24 hours), the pain relief entry is “complete pain relief”. In series [4] (case 2, tarsal tunnel syndrome/plantar fasciitis, runner, 0.5 mg application), this compound gave a pain relief of 90%. Moreover, the “outcome, pain” value in [4] (case 3, hamstring injury, 0.5 mg) is recorded as “complete resolution of pain without recurrence”. Moreover, in series [4] (case 3, hamstring injury, 0.5 mg to muscle and insertion site), the “time to resolution of pain” value lay in the range of 5 to 10 min. In addition, in series [4] (case 4 (person one), acute lumbar sprain, 1.0 mg application), the “pain and spasm relief” value is recorded as 80-90%. Also, in series [4] (setting [11]), the duration of relief result is “lasted overnight”; the “time to pain and spasm relief” value lay in the range of 10 to 15 min. Moreover, the “outcome, acute lumbar sprain from lifting” value in series [4] (case 5, 0.5 mg application and heating pad) was “without recurrent symptoms”. In addition, in series [4] (case 6, marathon runner, 0.5 mg to base of toe and 0.5 to tarsal tunnel), the “outcome, foot pain from stress fractures and tarsal tunnel” value is given as “experienced pain relief”. For the same compound, in series [4] (single topical dose increased to 2 mg, peripheral application), the “tolerability of increased single dose” value is on record as “without deleterious effects”.
As to `CN1CC[C@]23c4c5ccc(O)c4O[C@H]2[C@@H](O)C=C[C@H]3[C@H]1C5.O=S(=O)(O)O` [morphine sulfate], in series [5], the narcotic withdrawal symptoms result was “no significant narcotic withdrawal symptoms”. In addition, the “further reduction in pain from baseline” value in series [6] (Patient G, 3 mg topical in Pass-gel to the nuchal region, on oral oxycodone) is reported as 20-30%. Besides, the “reduction in baseline back and hip pain” value in series [6] (Patient I, topical 2.5 mg in 0.5 ml Pass-gel, despite regular narcotics) was 15-20%. For the same compound, the “time to reduction in pain” value in [6] (Patient K, topical 2.5 mg to the nuchal region) lay within 10 to 15 min; in [6] (Patient L, topical 2.5 mg to the nuchal region), 8 to 10 min. Also, the “headache and neck pain after treatment” value in series [6] (Patient K, topical 2.5 mg to the nuchal region, from "severe") was 0-1 of 10. Further, the pain after treatment result in series [6] (Patient L, topical 2.5 mg to the nuchal region, from about 8 of 10) is “about 4 of 10”.
`CN1CC[C@]23c4c5ccc(O)c4O[C@H]2[C@@H](O)C=C[C@H]3[C@H]1C5` [morphine]: the additional pain relief in [6] (Patient D, topical 2.5 mg in 0.5 ml Pass-gel, despite regular hydromorphone) is 20-30%. Besides, in [7], the “morphine levels in blood or urine” value is reported as “not detected”.
`Clc1ccc2nsnc2c1NC1=NCCN1` [tizanidine]: the “state of spastic upper extremity” value is on record as “essentially back to normal” in series [8] (after a few months of continued therapy) and “visible improvement” in [8] (within several weeks). The “absorption after oral administration” value in series [9] was “completely absorbed”.
For the compound `COc1cccc(C2(O)CCCCC2CN(C)C)c1` (stereo not drawn) [tramadol], the narcotic withdrawal symptoms result in [5] is “no significant narcotic withdrawal symptoms”. The pain relief entry in series [6] (Patient A, topical in Lipoderm, 40 mg tramadol hydrochloride dose twice daily, nuchal region and back) is recorded as “Pain relief is achieved”. Further, the “pain in the neck after treatment” value in series [6] (Patient B, 15 minutes after 20 mg topical to nuchal region and lower back, baseline about 7-8/10) was “about 0 /10”. Besides, the “pain in the back and legs after treatment” value in series [6] (Patient B, 15 minutes after 20 mg topical to nuchal region and lower back, baseline about 7/10) was “about 2 /10”. Moreover, the “benefit of oral tablets in the past” value in series [6] (Patient B, tramadol (Ultram) tablets) is reported as “without significant benefit”. Besides, in [6] (setting [12]), the eventual pain relief is reported as 80-90% and the “time to initial reduction in pain” value is not above 15 min. Besides, the “initial reduction in pain” value in series [6] (Patient C, right knee pain, 40 mg topical divided between knee (popliteal fossa) and lower back) is reported as approximately 50%. In addition, the outcome in series [6] (Patient D, 40 mg topical at the nuchal region) is “with benefit”. Further, in series [6] (setting [13]), the reduction in pain is reported as 70-80% and the “time to reduction in pain” value was 10 to 15 min. Further, in series [6] (setting [14]), the pain relief is not below 70% and the “time to pain relief” value is not above 15 min. Besides, in [6] (setting [15]), the “duration of pain relief” value is approximately 48 h and the “time to pain relief” value was not above 15 min. The pain relief result in series [6] (Patient H, 40 mg topical in 1 ml Lipoderm to neck and back in divided doses) is “greater than 80%”. In addition, in series [6] (Patient J, topical 40 mg in 1 ml Lipoderm to the nuchal region), the “outcome, pain (trigeminal neuralgia and cervical sprain)” value is “dramatic improvement in pain”. Also, the “onset of withdrawal after the last dose” value in [10] (in most cases) is 12 to 20 h. Besides, in series [10] (versus three or four days for other codeine analogues), the “duration of acute withdrawal symptoms” value was “seven days or more”.
Meperidine: the “Calculated Dose (mg), equianalgesic” value in series [1] is recorded as 135.0 mg.
